In test [1] the test system is U-937. In words: Growth inhibition of human U937 cells at 0.1 nM to 1000 nM after 72 hrs by particle counter based cell counting assay. Type of test: functional.
Test [2] concerns U-937. In words: Induction of TNFalpha secretion in human U937 cells at 0.01 nM to 10000 nM by real time qPCR method. It counts as functional, cell-based.
Test [3] has as its system U-937. In words: Induction of cell attachment of human U937 cells at 0.1 nM to 1000 nM after 60 hrs by particle counter based cell counting assay. Type of test: functional.
Test [4] has as its system U-937. As to the kind of experiment: Suppression of PMA-induced growth inhibition of human U937 cells at 1000 nM after 72 hrs by particle counter based cell counting assay. Type of test: functional.
For test [5], the target named is Protein kinase C alpha type (Homo sapiens, UniProt P17252). As to the kind of experiment: Inhibition of [20-3H]phorbol 12,13-dibutyrate binding to human PKCalpha by scintillation counting based poly(ethylene) glycol precipitation assay.
For test [6], the system named is U-937. In words: Inhibition of PMA-induced cell attachment of human U937 cells at 1000 nM after 60 hrs by particle counter based cell counting assay. Type of test: functional.
A short description of test [7]: Growth inhibition of human Toledo cells after 72 hrs by particle counter based cell counting assay. Type of test: functional.
The subject of test [8] is U-937. In words: Inhibition of PMA-induced TNFalpha secretion in human U937 cells at 0.01 nM to 10000 nM by real time qPCR method. It counts as functional, cell-based.
The subject of test [9] is Toledo. In words: Potency index, ratio of IC50 for Merle-43 to IC50 for test compound against human Toledo cells after 72 hrs by particle counter based cell counting assay. It counts as functional.
For test [10], the system named is U-937. In words: Growth inhibition of human U937 cells at 0.1 nM to 3000 nM after 72 hrs by particle counter based cell counting assay. Type of test: functional.
In test [11] the test system is U-937. As to the kind of experiment: Growth inhibition of human U937 cells at 1000 nM in presence of 10 nM PMA after 72 hrs by particle counter based cell counting assay. It counts as functional.
For test [12], the system named is U-937. As to the kind of experiment: Induction of TNFalpha secretion in human U937 cells at 0.01 nM to 10000 nM by real time qPCR method relative to PMA. Type of test: functional.
Test [13] deals with U-937. In words: Induction of cell attachment of human U937 cells at 0.1 nM to 3000 nM after 60 hrs by particle counter based cell counting assay. It counts as functional.
Test [14] deals with Toledo. As to the kind of experiment: Potency index, ratio of IC50 for neristatin-1 to IC50 for test compound against human Toledo cells after 72 hrs by particle counter based cell counting assay. It counts as functional.

SMILES strings stand for the structures. Active and inactive are the calls of the source. No cut-off for these calls is given here.

Here are results for four compounds from ChEMBL document CHEMBL3580537, “Neristatin 1 provides critical insight into bryostatin 1 structure-function relationships” (J Nat Prod, 2015).

For `CCCCCCCCCCCCCC(=O)O[C@@H]1[C@@H](C)[C@@]2(O)[C@@H](C=C(CO)C[C@]3(O)C(=O)C(C)=C[C@@H]23)[C@@H]2C(C)(C)[C@]12OC(C)=O` [PHORBOL MYRISTATE ACETATE], in the test on U-937 [1], the “growth inhibition (GI)” value was 50%. Moreover, the outcome in the test on U-937 [2] and in the test with U-937 [3] was Active.
For the compound `COC(=O)/C=C1/C[C@H]2C[C@]3(O)O[C@H](C[C@@H](O)CC(=O)O[C@H](C)[C@H](O)C[C@@H]4C[C@@H]5CC(=O)O[C@@]5(O4)C(=O)C(C)(C)/C=C/[C@@H](C1)O2)C[C@H](OC(=O)C(C)(C)C)C3(C)C`, the “growth inhibition (GI)” value in the test with U-937 [1] was “inactive”. Also, the result with U-937 [2] and in the test with U-937 [3] was inactive. In addition, the inhibition result with U-937 [4], with U-937 [6] and in the test with U-937 [8] was “Active” throughout. Moreover, the affinity in test [5] corresponds to a Ki of 21.2 nM. The compound further came in with an IC50 in [7] of 1.58 nM. In the test on Toledo [9], the “Ratio IC50” value turned out to be 2.5.
Regarding `CCCCCCCC(=O)O[C@H]1/C(=C/C(=O)OC)C[C@H]2C[C@@H](O)[C@@H](C)OC(=O)C[C@H](O)C[C@@H]3C[C@H](OC(C)=O)C(C)(C)[C@](O)(CCOC(=O)/C=C/C(C)(C)[C@]1(O)O2)O3`, the “growth inhibition (GI)” value in the test with U-937 [10] and in the test with U-937 [11] was “Active” each time. This compound also registered an Activity with U-937 [12] of 60%. Moreover, the outcome in the test on U-937 [13] was Active.
With `CCC/C=C/C=C/C(=O)O[C@H]1/C(=C/C(=O)OC)C[C@H]2C[C@H]([C@@H](C)O)OC(=O)C[C@H](O)C[C@@H]3C[C@H](OC(C)=O)C(C)(C)[C@](O)(C[C@@H]4C/C(=C/C(=O)OC)C[C@H](/C=C/C(C)(C)[C@]1(O)O2)O4)O3` [BRYOSTATIN 1], the “growth inhibition (GI)” value in the test on U-937 [1] was “inactive”. In addition, the result in the test with U-937 [2] and in the test with U-937 [3] was inactive. The inhibition entry with U-937 [4], in the test with U-937 [6] and in the test with U-937 [8] was “Active” in each case. In addition, the affinity in [5] corresponds to a Ki of 0.48 nM. Also, the “Ratio IC50” value with Toledo [14] was 17.
